From patent US20110046142A1, “ANTIBIOTIC COMPOUNDS” (priority 2007, published 2011)
≈ marks a conversion by molar mass, not a printed value. Read-outs that look alike come from different tables or passages of the source. Values belong to the molecule of their own block, whether it stands above or below them.

Key:
E. coli K12 wt = assay: MIC, standard broth microdilution assay; type: cell-based; settings: LB broth, 10^5 cells per well, 1 mM IPTG
Method: (§1) The ASKA strains of interest are validated for functional expression of the enzyme. If the protein is not expressed from a given expression vector the ORF is recloned. A strain overexpressing the activating enzyme from the ASKA library is then tested with the hit compound. If the hit has greater activity against this overexpressing strain as compared to the wild type, this indicates a prodrug. The test is performed in a standard broth microdilution assay for MIC determination. Hits with the lowest wild type MIC are then examined.
(§2) Cells were tested in a standard broth microdilution assay, inoculating 10^5 cells per well of a microtiter plate in LB broth. Overexpression and deletion strains were compared to the appropriate isogenic wild type. IPTG was added at 1 mM to growth medium. Experiments involving nfnB and nfsA strains were performed under anaerobic conditions.

[1] = test system: E. coli K12 overexpressing activating enzyme; assay: MIC, standard broth microdilution assay, overexpression strains; type: cell-based
Method: as §1, §2

[2] = test system: E. coli K12 Δactivating enzyme; assay: MIC, standard broth microdilution assay, deletion strains; type: cell-based; settings: Escherichia coli, anaerobic conditions
Method: as §1, §2

[3] = test system: E. coli K12 ΔtolC overexpressing activating enzyme; assay: MIC, standard broth microdilution assay, tolC deletion (MDR efflux); type: cell-based
Text: Prodrugs are activated by activating enzymes into reactive molecules that bind to their targets, creating an irreversible sink. This may lead to insensitivity of the overall process to MDR efflux. In order to test this possibility, an E. coli K12 with a deletion in tolC coding for the outer membrane porin that is a component of the transenvelope MDRs was utilized (Li (2004) Drugs 64:159-204). This strain is highly sensitive to antibiotics (Tegos et al. (2002) Antimicrob. Agents Chemother. 46:3133-3141). […] The substrate specificity of AcrAB is remarkably broad, and includes essentially all small molecular weight amphipathic compounds. The AcrAB substrates include anions (SDS, fatty acids, bile acids), neutral compounds (macrolides, chloramphenicol, tetracyclines) and cations or compounds that can form cations (acridine, quaternary compound antiseptics, fluoroquinolones). AcrAB can extrude a natural broad spectrum antibiotics that evolved for good penetration, chloramphenicol and tetracycline; and also extrude synthetic broad-spectrums, the fluoroquinolones.
as §2

[4] = test system: wild type bacterial strain (E. coli), stationary state; assay: Dose-dependent killing of stationary state cells, plating and colony count; type: cell-based; settings: anaerobic, 6 hours incubation, biphasic killing
Method: FIG. 10 is a graphical representation of the dose-dependent killing of E. coli by metronidazole. Stationary phase cells grown in LB medium in the presence of 1 mM IPTG under anaerobic conditions were challenged for 6 hrs with increasing concentrations of metronidazole and then plated on LB agar plates.
The killing ability of metronidazole was examined. The wild type bacterial strain was grown to stationary state under anaerobic conditions, and dose-dependent killing after incubation with metronidazole for 6 hours was detected by plating and colony count (FIG. 10). […] This is the first observation of a sterilizing activity of an antibiotic against a stationary state bacterial population. Previously, it was only possible to kill persisters and sterilize an infection with peracetic acid (FIG. 2); (Spoering et al. (2001) J. Bacteriol. 183:6746-6751).

[5] = test system: strain overexpressing the activating enzyme, NfnB or NfsA; assay: as above; type: cell-based, E. coli; settings: for sterilization of the population: nfnB^+ strain, limit of detection 6 logs of killing, <10 cells/ml
E. coli K12 = assay: Growth/no growth control wells (Z′-factor), OD600; type: cell-based
Method: The general procedure to establish the Z′-factor was tested. Since the output of the screening is a typical growth/no growth assay, this was performed by comparing growth in control wells to those containing a model antimicrobial, ciprofloxacin at 30 μg/ml. E. coli K12 were cultured in LB medium, and exponentially-growing cells were dispensed at 10^6/ml in 384-well microtiter plates, 30 μl/well. Six plates were used in this experiment. Ciprofloxacin was added to half of the wells (3 μl in LB, bringing the final volume to 33 μl). After an overnight incubation at 37 C, the OD600 of the plates were read, and the values of each well were used to calculate Z′-factor: Z′=1−(3SD++3SD−)/IAve+−Ave−I, where: SD+=positive control standard deviation; SD−=negative control standard deviation; Ave+=positive control average; and Ave−=negative control average). The following table for Z′-factor interpretation was used:
Before beginning the screen, a Z′-test was run. This was conducted by comparing growth in negative control wells to those with the prodrug AZT at 5 μg/ml. E. coli K12 cells were cultured in LB medium, and exponentially-growing cells were dispensed at 10^5/ml in 384-well microtiter plates, 30 μl/well. Four plates were used in this experiment. After an overnight incubation at 37° C., the OD600 of the plates were read, and the values of each well were used to calculate Z′-factor: […]

P. aeruginosa [6] = assay: Killing of logarithmic, stationary and biofilm cultures, colony count; type: cell-based; settings: for percentage of live cells: 5 μg/ml, 6 hrs
Method: Persister cells in planktonic and biofilm populations are characterized for their antibiotic sensitivity in this example. Several bactericidal antimicrobials were chosen to test the resistance of P. aeruginosa to killing—ofloxacin, a fluoroquinolone; tobramycin, an aminoglycoside; carbenicillin, a β-lactam; and peracetic acid, a disinfectant oxidant (Spoering et al. (2001) J. Bacteriol. 183:6746-6751). Biofilms were grown essentially by the method of Ceri (Ceri et al. (1999) J. Clin. Microbiol. 37:1771-1776) and as described in Brooun et al. (2000) Antimicrob. Agents Chemother. 44:640-646. The device used for biofilm formation is a platform carrying 96 polystyrene pegs that fit in a microtiter plate. Preformed biofilms were incubated in the presence of an antimicrobial agent, and survival was measured after disrupting the biofilms by colony count.
Logarithmic state, stationary and biofilm cultures were challenged with carbenicillin. Carbenicillin is a bactericidal antibiotic that, similarly to most β-lactams, only kills rapidly growing cells (Tuomanen et al. (1986) Scand. J. Gastroenterol. Suppl:10-14). […] The amount of killing of logarithmic cells approached a plateau at concentrations above 1.67×MIC, indicating the presence of a persister subpopulation. These 0.1% cells in the rapidly growing logarithmic culture were invulnerable to killing by carbenicillin at 600 μg/ml.
Unlike carbenicillin, ofloxacin can kill non-growing cells (Brooun et al. (2000) Antimicrob. Agents Chemother. 44:640-646). Logarithmic, stationary and biofilm cultures were challenged with ofloxacin over a wide range of concentrations, from 1×MIC (0.5 μg/ml) to 30×MIC (15 μg/ml). After a 6 hrs incubation time with the antibiotic, viability was determined by colony count. The majority of cells in the three populations examined were killed at low concentrations of ofloxacin (FIG. 3B). The killing in all three cultures was distinctly biphasic, indicating the presence of persister cells. The levels of persisters were dramatically higher in the dense stationary planktonic and biofilm cultures as compared to logarithmic cells. […] At 5 μg/ml ofloxacin, which is the clinically achievable concentration (Schulz et al. (1997) Pharmazie 52:895-911), the percentage of live cells was 0.001% in the logarithmic population, 0.1% in the biofilm and 2.5% in the stationary culture (FIG. 3B).
Tobramycin at 50 μg/ml (the maximal clinically achievable concentration is 10 μg/ml), (Schulz et al. (1997) Pharmazie 52:895-911) eliminated 90% of the biofilm cells, and the remaining population declined gradually with increasing amounts of the antibiotic. At high concentrations surviving persisters became apparent. Tobramycin was ineffective against stationary planktonic cells, apparently due to the dependence of killing of growth.
Peracetic acid, an oxidizing disinfectant, was used in order to test the ability of a sterilizing agent to act against persisters. […] Similar results showing biphasic killing, and high level of persisters in stationary and biofilm populations, also were obtained with S. aureus and E. coli (Keren et al. (2004) FEMS Microbiol. Lett. 230:13-18).

P. aeruginosa [7] = assay: MIC; type: cell-based; settings: Pseudomonas aeruginosa; 1×MIC
[8] = Schulz et al. (1997); cited from earlier work
[9] = test system: E. coli K12 knockout pool (BacPool) and wild type; assay: Prodrug screen, growth/no growth of BacPool knockout mix versus wild type; type: cell-based; settings: compounds at about 46-50 μg/ml, OD600 after overnight incubation
Text: A complete, ordered E. coli K12 knockout library of 4320 genes and predicted ORFs (the Keio library) was used (Baba et al. (2006). Mol. Systems Biol. 2:2006.0008). The knockouts were constructed using the Wanner method with a kanamycin cassette replacing the ORFs (Datsenko et al. (2000) Proc. Natl. Acad. Sci. USA 97:6640-6645). All strains of this library were combined in a mix BacPool1) for screening. This permitted screening of the library against all strains simultaneously, instead of screening a full industry-size library against each of the individual E. coli 4×10^3 knockout strains.
The library mix was prepared by first culturing all strains overnight in LB medium, and then adding equal aliquots into a tube. This material was then mixed, dispensed in vials and stored at −80° C. For the screen, one vial was thawed, diluted to 10^5 cells/ml in LB, and dispensed into 384 well microtiter plates. The compounds were added from DMSO stocks at a final concentration of 46 μg/ml. The same compounds were added to plates containing the wild type isogenic control. Screening was performed at the Harvard NSRB/NERCE screening facility that host a collection of 150,000 compounds (see Tables 1A and 1B). All screens at NSRB/NERCE were performed in duplicate, which strongly decreases the rate of false positives and negatives. For each tested molecule there are three possible scenarios when scoring for growth/no growth:
Growth in both the BacPool and K12 wells: indicates lack of antimicrobial activity;
Growth inhibition in both the BacPool and K12 wells: a possible antibiotic (direct activity) or generally toxic compound is present, but is not a prodrug; or
Growth of a BacPool well and no growth of the K12 well: a prodrug hit.
After an overnight incubation of plates at 37° C., the plates were read at OD600. Compounds that had no effect on the growth of the mix and inhibited the growth of the wild type were recorded as hits. The wells with growth indicated a prodrug hit that is not converted into a drug by a particular deletion mutant in the mix. The mutant strain is then identified in a secondary screen (see Example 2).
Yet another screen was performed on 147,500 compounds, using the protocol described below. […]
An E. coli KanR culture was grown in LB broth containing 50 μg/ml Kanamycin for 20 hrs at 37° C. in a shaking incubator. […] The plates were then incubated for 20 hrs at 37° C., and then the plates were read for Optical Density at 600 nm and were scored for growth/no growth. […]
Hits were identified by calculating the % of inhibition of growth of E. coli measured by OD600. The data were analyzed as follows: negative controls (N), positive controls (P), and compounds (X) ODs were separately averaged and the resulting means were used to calculate % of inhibition of E. coli growth: […]

SMILES: Cc1ncc([N+](=O)[O-])n1CCO [Metronidazole]
- MIC (E. coli K12 wt; Escherichia coli, K12WT, read-out: MIC): > 500 µg/mL
- MIC (E. coli K12 wt): 563 µg/mL (≈ 3290 µM)
- sensitivity of the overexpression strain as compared to the wild type control ([1]; E. coli overexpressing NfnB): greater than 50 fold
- MIC ([1]; Escherichia coli): 8.8 µg/mL (≈ 51.4 µM)
- MIC ([1]; nfnB^+ overexpressing strain, 1 mM IPTG, anaerobic conditions): nfnB^+ 8.8 μg/ml
- MIC ([1]; nfsA^+ overexpressing strain, 1 mM IPTG, anaerobic conditions): nfsA^+ 8.8 μg/ml
- MIC ([1]; nfsA^+ overexpressing strain, 1 mM IPTG, anaerobic conditions, listed as metronidazole): 8.8 µg/mL (≈ 51.4 µM)
- MIC ([2]; nfnB^− deletion strain): 1120 µg/mL (≈ 6570 µM)
- MIC ([2]; nfsA^− deletion strain): 2250 µg/mL (≈ 13100 µM)
- MIC ([3]; Escherichia coli): 8.8 µg/mL (≈ 51.4 µM)
- MIC ([3]; ΔtolC, nfsA^+ overexpressing strain): nfsA^+ 8.8 μg/ml
- tolerant persister cells [4]: about 1%
- sterilization of the population [5]: completely “sterilized”
- sterilization of the population ([5]; listed as metronidazole): complete sterilization
- surviving persisters ([5]; strain overexpressing NfnB or NfsA, stationary state, 6 hours): no surviving persisters were detected

SMILES: O=C(O)c1cn(C2CC2)c2cc(N3CCNCC3)c(F)cc2c1=O [ciprofloxacin]
- growth in wells with antibiotic (E. coli K12; 30 μg/ml, overnight at 37 C): no case of substantial growth

- MIC (P. aeruginosa [7]): 0.5 µg/mL (≈ 1.38 µM)
SMILES: CC1COc2c(N3CCN(C)CC3)c(F)cc3c(=O)c(C(=O)O)cn1c23 (stereo not shown) [ofloxacin]
- percentage of live cells (P. aeruginosa [6]; biofilm): 0.1%
- percentage of live cells (P. aeruginosa [6]; logarithmic population): 0.001%
- percentage of live cells (P. aeruginosa [6]; stationary culture): 2.5%
- (maximal) clinically achievable concentration [8]: 5 µg/mL

- MIC (P. aeruginosa [7]): 1 µg/mL (≈ 2.14 µM)
SMILES: NC[C@H]1O[C@H](O[C@H]2[C@H](O)[C@@H](O[C@H]3O[C@H](CO)[C@@H](O)[C@H](N)[C@H]3O)[C@H](N)C[C@@H]2N)[C@H](N)C[C@@H]1O [tobramycin]
- biofilm cells eliminated (P. aeruginosa [6]; biofilm, 50 μg/ml): 90%
- logarithmic persisters (P. aeruginosa [6]; logarithmic cells, 1 to 1500 μg/ml): no logarithmic persisters were detected
- killing of stationary cells (P. aeruginosa [6]; stationary planktonic cells): ineffective
- (maximal) clinically achievable concentration [8]: 10 µg/mL

SMILES: Cc1cn([C@H]2C[C@H](N=[N+]=[N-])[C@@H](CO)O2)c(=O)[nH]c1=O [zidovudine]
- screen outcome (prodrug hit / direct activity) [9]: prodrug hits
- inhibition of E. coli growth (E. coli K12; positive control at 5 μg/ml): complete inhibition
